Laboratory results reported in patent US9802918B2, “Pyridineamine compounds useful as Pim kinase inhibitors” (Incyte Corporation, priority 2015, dated 2017).

Experiments:
Type in all cases: biochemical
Pim-2 = Pim-2 (Homo sapiens (Human), UniProt Q9P1W9); test: Pim-2 kinase assay; settings: 1 mM ATP; read-out: Pim2 IC50
Outline: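 Pim-2 (1 nM) with fluorescein-CREBtide ([…]) and 1 mM ATP in Tris pH 7.5, MgCl2, DTT buffer, 2 h at 25 °C. Stopped with EDTA plus Tb-anti-CREB pSer133 antibody; phosphorylation read by TR-FRET after 30 min.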

Pim-1 = Pim-1 (Homo sapiens (Human), UniProt P11309); test: Pim-1 kinase assay; settings: 1 mM ATP; read-out: Pim1 IC50
Experimental: Supplementation of the STOP buffer with beads and stopping the reactions were done under reduced light. Prior to the stopping reactions STOP buffer with beads was preincubated for 1 h in the dark at room temperature. After stopping the reactions, plates were incubated for 1 h in the dark at room temperature before reading on a PHERAstar FS plate reader (BMG Labtech) under reduced light.

Pim-3 = Pim-3 (Homo sapiens (Human), UniProt Q86V86); test: Pim-3 kinase assay; settings: 1 mM ATP; read-out: Pim3 IC50
Outline: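 Human Pim-3 at 1.25 pM phosphorylated […] biotin-BAD peptide with 1 mM ATP for 1 h at 25° C, in pH 7.5 Tris buffer with 5 mM MgCl2 and 5 mM DTT. Reactions were stopped with EDTA buffer containing phospho-Bad (Ser112) antibody and AlphaScreen donor/acceptor beads. Plates were read after 1 h dark incubation at room temperature.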

Sequence of Pim-2 (Q9P1W9 whole entry): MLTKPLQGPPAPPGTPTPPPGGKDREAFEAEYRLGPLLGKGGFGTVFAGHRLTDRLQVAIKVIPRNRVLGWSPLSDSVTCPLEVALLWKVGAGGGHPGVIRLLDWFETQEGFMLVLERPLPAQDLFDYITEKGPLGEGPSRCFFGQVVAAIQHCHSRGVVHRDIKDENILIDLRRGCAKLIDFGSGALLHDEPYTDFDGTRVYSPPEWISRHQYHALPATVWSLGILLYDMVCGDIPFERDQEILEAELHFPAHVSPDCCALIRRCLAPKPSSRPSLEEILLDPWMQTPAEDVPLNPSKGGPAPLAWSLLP
Sequence of Pim-1 (P11309 whole entry): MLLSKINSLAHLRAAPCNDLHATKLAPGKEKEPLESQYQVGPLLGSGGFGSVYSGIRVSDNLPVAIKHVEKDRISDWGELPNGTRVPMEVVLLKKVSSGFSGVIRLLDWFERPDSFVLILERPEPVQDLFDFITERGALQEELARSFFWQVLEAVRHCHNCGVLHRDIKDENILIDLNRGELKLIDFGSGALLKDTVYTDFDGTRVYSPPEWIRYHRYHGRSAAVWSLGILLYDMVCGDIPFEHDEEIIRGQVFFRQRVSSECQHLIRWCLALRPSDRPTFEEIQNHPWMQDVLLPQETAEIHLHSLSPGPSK

## C[C@@H]1C[C@H](N)CN(c2ccncc2NCc2nc(-c3c(F)cccc3F)sc2N)C1 [Example 69, N-{[5-Amino-2-(2,6-difluorophenyl)-1,3-thiazol-4-yl]methyl}-4-[(3S,5R)-3-amino-5-methylpiperidin-1-yl]pyridin-3-amine]
Pim-2
  IC50: 1000 to 10000 nM
Pim-1
  IC50: < 10 nM
Pim-3
  IC50: ≤ 10 nM

## C[C@H]1CN(c2ccncc2NCc2ccc(F)c(-c3c(F)cc(CN4CC[C@@H](F)C4)cc3F)n2)C[C@@H](N)[C@@H]1O [Example 46, (3R,4R,5S)-3-amino-1-(3-(((6-(2,6-difluoro-4-(((R)-3-fluoropyrrolidin-1-yl)methyl)phenyl)-5-fluoropyridin-2-yl)methyl)amino)pyridin-4-yl)-5-methylpiperidin-4-ol]
Pim-2
  IC50: ≤ 100 nM
Pim-1
  IC50: < 10 nM
Pim-3
  IC50: ≤ 10 nM

## C[C@@H]1C[C@H](N)CN(c2c(NCc3ccc(F)c(-c4c(F)cccc4F)n3)cnc3c2CCC3)C1 [Example 89, 4-[(3S,5R)-3-Amino-5-methylpiperidin-1-yl]-N-{[6-(2,6-difluorophenyl)-5-fluoropyridin-2-yl]methyl}-6,7-dihydro-5H-cyclopenta[b]pyridin-3-amine]
Pim-2
  IC50: 100 to 1000 nM
Pim-1
  IC50: < 10 nM
Pim-3
  IC50: ≤ 10 nM

## C[C@@H]1C[C@H](N)CN(c2ccncc2NCc2ccc(F)c(-c3c(F)cc(CN4CC[C@@H](O)C4)cc3F)n2)C1 [Example 51, (R)-1-(4-(6-((4-((3S,5R)-3-Amino-5-methylpiperidin-1-yl)pyridin-3-ylamino)methyl)-3-fluoropyridin-2-yl)-3,5-difluorobenzyl)pyrrolidin-3-ol]
Pim-2
  IC50: ≤ 100 nM
Pim-1
  IC50: < 10 nM
Pim-3
  IC50: ≤ 10 nM

## C[C@H]1CN(c2ccncc2NCc2ccc(F)c(-c3c(F)cncc3F)n2)C[C@@H](N)[C@@H]1O [Example 16, (3R,4R,5S)-3-Amino-5-methyl-1-(3-(((3,3′,5′-trifluoro-[2,4′-bipyridin]-6-yl)methyl)amino)pyridin-4-yl)piperidin-4-ol]
Pim-2
  IC50: 100 to 1000 nM
Pim-1
  IC50: < 10 nM
Pim-3
  IC50: ≤ 10 nM

## C[C@H]1CN(c2ccncc2NCc2ccc(F)c(-c3c(F)cc(C(C)(C)O)cc3F)n2)C[C@@H](N)[C@@H]1O [Example 106, (3R,4R,5S)-3-Amino-1-{3-[({6-[2,6-difluoro-4-(1-hydroxy-1-methylethyl)phenyl]-5-fluoropyridin-2-yl}methyl)amino]pyridin-4-yl}-5-methylpiperidin-4-ol]
Pim-2
  IC50: ≤ 100 nM
Pim-1
  IC50: < 10 nM
Pim-3
  IC50: ≤ 10 nM

## C[C@H]1CN(c2ccncc2NCc2ccc(F)c(-c3c(F)cc(C4(O)CCOC4)cc3F)n2)C[C@@H](N)[C@@H]1O (stereo partly drawn) [Example 1, (3R,4R,5S)-3-Amino-1-{3-[({6-[2,6-difluoro-4-(3-hydroxytetrahydrofuran-3-yl)phenyl]-5-fluoropyridin-2-yl}methyl)amino]pyridin-4-yl}-5-methylpiperidin-4-ol]
Pim-2
  IC50: ≤ 100 nM
Pim-1
  IC50: < 10 nM
Pim-3
  IC50: ≤ 10 nM

## COC1(c2cc(F)c(-c3nc(CNc4cnccc4N4C[C@@H](N)[C@H](O)[C@@H](C)C4)ccc3F)c(F)c2)CCOCC1 [Example 59, (3R,4R,5S)-3-Amino-1-{3-[({6-[2,6-difluoro-4-(4-methoxytetrahydro-2H-pyran-4-yl)phenyl]-5-fluoropyridin-2-yl}methyl)amino]pyridin-4-yl}-5-methylpiperidin-4-ol]
Pim-2
  IC50: 100 to 1000 nM
Pim-1
  IC50: < 10 nM
Pim-3
  IC50: ≤ 10 nM

## C[C@H]1CN(c2c(NCc3ccc(F)c(-c4c(F)cccc4F)n3)cnc3c2CCO3)C[C@@H](N)[C@@H]1O [Example 88, (3R,4R,5S)-3-Amino-1-[5-({[6-(2,6-difluorophenyl)-5-fluoropyridin-2-yl]methyl}amino)-2,3-dihydrofuro[2,3-b]pyridin-4-yl]-5-methylpiperidin-4-ol]
Pim-2
  IC50: 1000 to 10000 nM
Pim-1
  IC50: < 10 nM
Pim-3
  IC50: ≤ 10 nM

## CC(C)c1coc2ccc(CNc3cnccc3N3C[C@H](C)C[C@H](N)C3)nc12 [Example 98, 4-[(3S,5R)-3-Amino-5-methylpiperidin-1-yl]-N-[(3-isopropylfuro[3,2-b]pyridin-5-yl)methyl]pyridin-3-amine]
Pim-2
  IC50: 100 to 1000 nM
Pim-1
  IC50: < 10 nM
Pim-3
  IC50: ≤ 10 nM

## C[C@@H]1C[C@H](N)CN(c2ccncc2NCc2ccc(F)c(C3CCCCC3)n2)C1 [Example 58, 4-[(3S,5R)-3-Amino-5-methylpiperidin-1-yl]-N-[(6-cyclohexyl-5-fluoropyridin-2-yl)methyl]pyridin-3-amine]
Pim-2
  IC50: 100 to 1000 nM
Pim-1
  IC50: < 10 nM
Pim-3
  IC50: 10 to 50 nM

## C[C@@H]1C[C@H](N)CN(c2ccncc2NCc2ccc(F)c(-c3c(F)cc(OCC(C)(C)O)cc3F)n2)C1 [Example 103, 1-(4-{6-[({4-[(3S,5R)-3-Amino-5-methylpiperidin-1-yl]pyridin-3-yl}amino)methyl]-3-fluoropyridin-2-yl}-3,5-difluorophenoxy)-2-methylpropan-2-ol]
Pim-2
  IC50: ≤ 100 nM
Pim-1
  IC50: < 10 nM
Pim-3
  IC50: ≤ 10 nM

## C[C@@H]1C[C@H](N)C[C@H](c2ccncc2NCc2ccc(F)c(-c3c(F)cc(N4CCOCC4)cc3F)n2)C1 [Example 68, 4-[(1R,3S,5S)-3-Amino-5-methylcyclohexyl]-N-{[6-(2,6-difluoro-4-morpholin-4-ylphenyl)-5-fluoropyridin-2-yl]methyl}pyridin-3-amine]
Pim-2
  IC50: 100 to 1000 nM
Pim-1
  IC50: < 10 nM
Pim-3
  IC50: ≤ 10 nM

## C[C@@H]1C[C@H](N)CN(c2ccncc2NCc2cccc(-c3c(F)cccc3F)n2)C1 [Example 29, 4-[(3S,5R)-3-Amino-5-methylpiperidin-1-yl]-N-{[6-(2,6-difluorophenyl)pyridin-2-yl]methyl}pyridin-3-amine]
Pim-2
  IC50: 100 to 1000 nM
Pim-1
  IC50: < 10 nM
Pim-3
  IC50: ≤ 10 nM

## CNCc1cc(F)c(-c2nc(CNc3cnccc3N3C[C@@H](N)[C@H](O)[C@@H](C)C3)ccc2F)c(F)c1 [Example 40, (3R,4R,5S)-3-Amino-1-(3-(((6-(2,6-difluoro-4-((methylamino)methyl)phenyl)-5-fluoropyridin-2-yl)methyl)amino)pyridin-4-yl)-5-methylpiperidin-4-ol]
Pim-2
  IC50: 100 to 1000 nM
Pim-1
  IC50: < 10 nM
Pim-3
  IC50: ≤ 10 nM

## C[C@@H]1C[C@H](N)CN(c2ccncc2NCc2ccc3occ(C4CC4)c3n2)C1 [Example 102, 4-[(3S,5R)-3-Amino-5-methylpiperidin-1-yl]-N-[(3-cyclopropylfuro[3,2-b]pyridin-5-yl)methyl]pyridin-3-amine]
Pim-2
  IC50: 100 to 1000 nM
Pim-1
  IC50: < 10 nM
Pim-3
  IC50: ≤ 10 nM

## C[C@@H]1C[C@H](N)CN(c2ccncc2NCc2ccc(F)c(-c3c(F)cc(N4CC[C@@H](F)C4)cc3F)n2)C1 [Example 70, 4-[(3S,5R)-3-Amino-5-methylpiperidin-1-yl]-N-[(6-{2,6-difluoro-4-[(3R)-3-fluoropyrrolidin-1-yl]phenyl}-5-fluoropyridin-2-yl)methyl]pyridin-3-amine]
Pim-2
  IC50: 100 to 1000 nM
Pim-1
  IC50: < 10 nM
Pim-3
  IC50: ≤ 10 nM

## C[C@@H]1C[C@H](N)CN(c2ccncc2NCc2ccc(F)c(-c3c(F)cc(CN4CC[C@@H](C#N)C4)cc3F)n2)C1 [Example 53, (R)-1-(4-(6-((4-((3S,5R)-3-amino-5-methylpiperidin-1-yl)pyridin-3-ylamino)methyl)-3-fluoropyridin-2-yl)-3,5-difluorobenzyl)pyrrolidine-3-carbonitrile]
Pim-2
  IC50: ≤ 100 nM
Pim-1
  IC50: < 10 nM
Pim-3
  IC50: ≤ 10 nM

## C[C@@H]1C[C@H](N)CN(c2ccncc2NCc2ccc(F)c(-c3c(F)cc(C4(O)CC4)cc3F)n2)C1 [Example 10, 1-(4-{6-[({4-[(3S,5R)-3-Amino-5-methylpiperidin-1-yl]pyridin-3-yl}amino)methyl]-3-fluoropyridin-2-yl}-3,5-difluorophenyl)cyclopropanol]
Pim-2
  IC50: ≤ 100 nM
Pim-1
  IC50: < 10 nM
Pim-3
  IC50: ≤ 10 nM

## C[C@@H]1C[C@H](N)CN(c2ccncc2NCc2ccc(F)c(-c3c(F)cc(CN4CC[C@H](F)C4)cc3F)n2)C1 [Example 56, 4-((3S,5R)-3-amino-5-methylpiperidin-1-yl)-N-((6-(2,6-difluoro-4-(((S)-3-fluoropyrrolidin-1-yl)methyl)phenyl)-5-fluoropyridin-2-yl)methyl)pyridin-3-amine]
Pim-2
  IC50: ≤ 100 nM
Pim-1
  IC50: < 10 nM
Pim-3
  IC50: ≤ 10 nM

## C[C@H]1CN(c2ccncc2NCc2ccc(F)c(-c3c(F)cc(OCC(C)(C)O)cc3F)n2)C[C@@H](N)[C@@H]1O [Example 104, (3R,4R,5S)-3-Amino-1-{3-[({6-[2,6-difluoro-4-(2-hydroxy-2-methylpropoxy)phenyl]-5-fluoropyridin-2-yl}methyl)amino]pyridin-4-yl}-5-methylpiperidin-4-ol]
Pim-2
  IC50: 100 to 1000 nM
Pim-1
  IC50: < 10 nM
Pim-3
  IC50: ≤ 10 nM

## C[C@H]1CN(c2ccncc2NCc2ccc(F)c(-c3c(F)cc(CO)cc3F)n2)C[C@@H](N)[C@@H]1O [Example 35, (3R,4R,5S)-3-Amino-1-{3-[({6-[2,6-difluoro-4-(hydroxymethyl)phenyl]-5-fluoropyridin-2-yl}methyl)amino]pyridin-4-yl}-5-methylpiperidin-4-ol]
Pim-2
  IC50: ≤ 100 nM
Pim-1
  IC50: < 10 nM
Pim-3
  IC50: ≤ 10 nM

## COc1cc(F)c(-c2nc(CNc3cnccc3N3C[C@@H](N)[C@H](O)[C@@H](C)C3)ccc2F)c(F)c1 [Example 82, (3R,4R,5S)-3-Amino-1-[3-({[6-(2,6-difluoro-4-methoxyphenyl)-5-fluoropyridin-2-yl]methyl}amino)pyridin-4-yl]-5-methylpiperidin-4-ol]
Pim-2
  IC50: ≤ 100 nM
Pim-1
  IC50: < 10 nM
Pim-3
  IC50: ≤ 10 nM
